Laboratory results from PubChem BioAssay AID1918941 (Molecular Pharmacology Branch, DTP, NCI, 2023).

Tested on: SW 1271 complex spheroids, viability
Test: Anticancer human tumor SW 1271 cell line growth inhibition [LSD1];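 also: spheroids exposed to agents for 7 days before luminescence read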;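 as to viability, T/C: 100% = DMSO vehicle control viability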
Conditions: for IC50: curve of first compound; for viability, T/C: stronger effect = lower value
In short: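 Drug combinations with the LSD1 inhibitor iadademstat tested on tumor cells co-cultured as spheroids with endothelial cells and mesenchymal stem cells. Concentrations descended in half-log increments from clinical Cmax or 10 microM.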

[1] = second compound 0.1 µM, first compound 0.0316 µM
[2] = second compound 0.1 µM, first compound 0.1 µM
[3] = second compound 0.316 µM, first compound 0.0316 µM
[4] = second compound 0.316 µM, first compound 0.1 µM
[5] = second compound 1 µM, first compound 0.0316 µM
[6] = second compound 1 µM, first compound 0.1 µM
[7] = second compound 3.16 µM, first compound 0.0316 µM
[8] = second compound 3.16 µM, first compound 0.1 µM
[9] = second compound 10 µM, first compound 0.0316 µM
[10] = second compound 10 µM, first compound 0.1 µM
[11] = second compound 0.1 µM, first compound 0.000949 µM
[12] = second compound 0.1 µM, first compound 0.003 µM
[13] = second compound 0.1 µM, first compound 0.00949 µM
[14] = second compound 0.1 µM, first compound 0.03 µM
[15] = second compound 0.1 µM, first compound 0.0949 µM
[16] = second compound 0.1 µM, first compound 0.3 µM
[17] = second compound 0.316 µM, first compound 0.000949 µM
[18] = second compound 0.316 µM, first compound 0.003 µM
[19] = second compound 0.316 µM, first compound 0.00949 µM
[20] = second compound 0.316 µM, first compound 0.03 µM
[21] = second compound 0.316 µM, first compound 0.0949 µM
[22] = second compound 0.316 µM, first compound 0.3 µM
[23] = second compound 1 µM, first compound 0.000949 µM
[24] = second compound 1 µM, first compound 0.003 µM
[25] = second compound 1 µM, first compound 0.00949 µM
[26] = second compound 1 µM, first compound 0.03 µM
[27] = second compound 1 µM, first compound 0.0949 µM
[28] = second compound 1 µM, first compound 0.3 µM
[29] = second compound 3.16 µM, first compound 0.000949 µM
[30] = second compound 3.16 µM, first compound 0.003 µM
[31] = second compound 3.16 µM, first compound 0.00949 µM
[32] = second compound 3.16 µM, first compound 0.03 µM
[33] = second compound 3.16 µM, first compound 0.0949 µM
[34] = second compound 3.16 µM, first compound 0.3 µM
[35] = second compound 10 µM, first compound 0.000949 µM
[36] = second compound 10 µM, first compound 0.003 µM
[37] = second compound 10 µM, first compound 0.00949 µM
[38] = second compound 10 µM, first compound 0.03 µM
[39] = second compound 10 µM, first compound 0.0949 µM
[40] = second compound 10 µM, first compound 0.3 µM

Structure (SMILES): CC[C@@]1(O)C(=O)OCc2c1cc1n(c2=O)Cc2cc3c(CN(C)C)c(O)ccc3nc2-1 + NC1CCC(NC2CC2c2ccccc2)CC1
- IC50 (second compound 0.1 µM): > 100 nM
- IC50 (second compound 0.316 µM): > 100 nM
- IC50 (second compound 1 µM): 66.1 nM
- IC50 (second compound 3.16 µM): 71.6 nM
- IC50 (second compound 10 µM): > 100 nM
- viability, T/C (second compound 0.1 µM, first compound 0.000316 µM): 89.2%
- viability, T/C (second compound 0.1 µM, first compound 0.001 µM): 93.8%
- viability, T/C (second compound 0.1 µM, first compound 0.00316 µM): 78.8%
- viability, T/C (second compound 0.1 µM, first compound 0.01 µM): 63%
- viability, T/C [1]: 58%
- viability, T/C [2]: 56.4%
- viability, T/C (second compound 0.316 µM, first compound 0.000316 µM): 90%
- viability, T/C (second compound 0.316 µM, first compound 0.001 µM): 74.2%
- viability, T/C (second compound 0.316 µM, first compound 0.00316 µM): 71.6%
- viability, T/C (second compound 0.316 µM, first compound 0.01 µM): 72.5%
- viability, T/C [3]: 62%
- viability, T/C [4]: 58.9%
- viability, T/C (second compound 1 µM, first compound 0.000316 µM): 73.4%
- viability, T/C (second compound 1 µM, first compound 0.001 µM): 94.5%
- viability, T/C (second compound 1 µM, first compound 0.00316 µM): 80.1%
- viability, T/C (second compound 1 µM, first compound 0.01 µM): 66.7%
- viability, T/C [5]: 59%
- viability, T/C [6]: 45.4%
- viability, T/C (second compound 3.16 µM, first compound 0.000316 µM): 95.9%
- viability, T/C (second compound 3.16 µM, first compound 0.001 µM): 78.2%
- viability, T/C (second compound 3.16 µM, first compound 0.00316 µM): 72.9%
- viability, T/C (second compound 3.16 µM, first compound 0.01 µM): 68.3%
- viability, T/C [7]: 49.7%
- viability, T/C [8]: 49.6%
- viability, T/C (second compound 10 µM, first compound 0.000316 µM): 88.3%
- viability, T/C (second compound 10 µM, first compound 0.001 µM): 84.2%
- viability, T/C (second compound 10 µM, first compound 0.00316 µM): 78.2%
- viability, T/C (second compound 10 µM, first compound 0.01 µM): 60.3%
- viability, T/C [9]: 57.5%
- viability, T/C [10]: 52.2%

Structure (SMILES): CCc1c2c(nc3ccc(O)cc13)-c1cc3c(c(=O)n1C2)COC(=O)[C@]3(O)CC + NC1CCC(NC2CC2c2ccccc2)CC1
- IC50 (second compound 0.1 µM): 3.54 nM
- IC50 (second compound 0.316 µM): 1.7 nM
- IC50 (second compound 1 µM): 3.54 nM
- IC50 (second compound 3.16 µM): 2.36 nM
- IC50 (second compound 10 µM): 1.83 nM
- viability, T/C [11]: 59.3%
- viability, T/C [12]: 53.9%
- viability, T/C [13]: 26.8%
- viability, T/C [14]: 8.08%
- viability, T/C [15]: 5.77%
- viability, T/C [16]: 5.6%
- viability, T/C [17]: 57.5%
- viability, T/C [18]: 42.2%
- viability, T/C [19]: 26%
- viability, T/C [20]: 9.7%
- viability, T/C [21]: 8.55%
- viability, T/C [22]: 3.31%
- viability, T/C [23]: 56.9%
- viability, T/C [24]: 52.8%
- viability, T/C [25]: 31.5%
- viability, T/C [26]: 8.11%
- viability, T/C [27]: 5.83%
- viability, T/C [28]: 3.46%
- viability, T/C [29]: 57.8%
- viability, T/C [30]: 46.5%
- viability, T/C [31]: 26.4%
- viability, T/C [32]: 7.18%
- viability, T/C [33]: 5.59%
- viability, T/C [34]: 19.2%
- viability, T/C [35]: 52.4%
- viability, T/C [36]: 48%
- viability, T/C [37]: 27.9%
- viability, T/C [38]: 7.16%
- viability, T/C [39]: 5.27%
- viability, T/C [40]: 3.36%

Structure (SMILES): COc1cc(C2c3cc4c(cc3C(OC3OC5COC(C)OC5C(O)C3O)C3COC(=O)C23)OCO4)cc(OC)c1O (stereo not given) + NC1CCC(NC2CC2c2ccccc2)CC1
- IC50 (second compound 0.1 µM): 2660 nM
- IC50 (second compound 0.316 µM): > 3000 nM
- IC50 (second compound 1 µM): > 3000 nM
- IC50 (second compound 3.16 µM): > 3000 nM
- IC50 (second compound 10 µM): > 3000 nM
- viability, T/C [13]: 77%
- viability, T/C [14]: 76.8%
- viability, T/C [15]: 80.5%
- viability, T/C [16]: 68.9%
- viability, T/C (second compound 0.1 µM, first compound 0.949 µM): 78.7%
- viability, T/C (second compound 0.1 µM, first compound 3 µM): 47%
- viability, T/C [19]: 88.7%
- viability, T/C [20]: 94.4%
- viability, T/C [21]: 75%
- viability, T/C [22]: 66.7%
- viability, T/C (second compound 0.316 µM, first compound 0.949 µM): 58.4%
- viability, T/C (second compound 0.316 µM, first compound 3 µM): 64.1%
- viability, T/C [25]: 80.2%
- viability, T/C [26]: 80.2%
- viability, T/C [27]: 74.2%
- viability, T/C [28]: 75%
- viability, T/C (second compound 1 µM, first compound 0.949 µM): 66.7%
- viability, T/C (second compound 1 µM, first compound 3 µM): 56.9%
- viability, T/C [31]: 95.7%
- viability, T/C [32]: 70.9%
- viability, T/C [33]: 71.8%
- viability, T/C [34]: 73.4%
- viability, T/C (second compound 3.16 µM, first compound 0.949 µM): 58.9%
- viability, T/C (second compound 3.16 µM, first compound 3 µM): 60.8%
- viability, T/C [37]: 77%
- viability, T/C [38]: 80.9%
- viability, T/C [39]: 72.1%
- viability, T/C [40]: 72.2%
- viability, T/C (second compound 10 µM, first compound 0.949 µM): 58.4%
- viability, T/C (second compound 10 µM, first compound 3 µM): 64.3%

Structure (SMILES): Nc1ccn(C2OC(CO)C(O)C2(F)F)c(=O)n1 (stereo not given) + NC1CCC(NC2CC2c2ccccc2)CC1
- IC50 (second compound 0.1 µM): > 300 nM
- IC50 (second compound 0.316 µM): > 300 nM
- IC50 (second compound 1 µM): > 300 nM
- IC50 (second compound 3.16 µM): > 300 nM
- IC50 (second compound 10 µM): > 300 nM
- viability, T/C [11]: 83.3%
- viability, T/C [12]: 69.4%
- viability, T/C [13]: 62.5%
- viability, T/C [14]: 59.5%
- viability, T/C [15]: 69.3%
- viability, T/C [16]: 71.4%
- viability, T/C [17]: 73.8%
- viability, T/C [18]: 71.2%
- viability, T/C [19]: 76.2%
- viability, T/C [20]: 61.3%
- viability, T/C [21]: 62.7%
- viability, T/C [22]: 59.6%
- viability, T/C [23]: 80.7%
- viability, T/C [24]: 64.6%
- viability, T/C [25]: 59.8%
- viability, T/C [26]: 66.3%
- viability, T/C [27]: 56.1%
- viability, T/C [28]: 59.4%
- viability, T/C [29]: 67.5%
- viability, T/C [30]: 68.4%
- viability, T/C [31]: 84.5%
- viability, T/C [32]: 59.8%
- viability, T/C [33]: 60.5%
- viability, T/C [34]: 63%
- viability, T/C [35]: 83.7%
- viability, T/C [36]: 64.3%
- viability, T/C [37]: 62.5%
- viability, T/C [38]: 68.6%
- viability, T/C [39]: 60.7%
- viability, T/C [40]: 64.9%

Structure (SMILES): O=C(c1cc(Cc2n[nH]c(=O)c3ccccc23)ccc1F)N1CCN(C(=O)C2CC2)CC1 + NC1CCC(NC2CC2c2ccccc2)CC1
- IC50 (second compound 0.1 µM): > 10000 nM
- IC50 (second compound 0.316 µM): > 10000 nM
- IC50 (second compound 1 µM): > 10000 nM
- IC50 (second compound 3.16 µM): > 10000 nM
- IC50 (second compound 10 µM): > 10000 nM
- viability, T/C [1]: 82%
- viability, T/C [2]: 104%
- viability, T/C (second compound 0.1 µM, first compound 0.316 µM): 95.3%
- viability, T/C (second compound 0.1 µM, first compound 1 µM): 86.2%
- viability, T/C (second compound 0.1 µM, first compound 3.16 µM): 82.6%
- viability, T/C (second compound 0.1 µM, first compound 10 µM): 71.2%
- viability, T/C [3]: 85.7%
- viability, T/C [4]: 91.9%
- viability, T/C (second compound 0.316 µM, first compound 0.316 µM): 97.3%
- viability, T/C (second compound 0.316 µM, first compound 1 µM): 87.7%
- viability, T/C (second compound 0.316 µM, first compound 3.16 µM): 81.9%
- viability, T/C (second compound 0.316 µM, first compound 10 µM): 63.8%
- viability, T/C [5]: 82.7%
- viability, T/C [6]: 105%
- viability, T/C (second compound 1 µM, first compound 0.316 µM): 91.5%
- viability, T/C (second compound 1 µM, first compound 1 µM): 96.6%
- viability, T/C (second compound 1 µM, first compound 3.16 µM): 79.8%
- viability, T/C (second compound 1 µM, first compound 10 µM): 71.9%
- viability, T/C [7]: 81.6%
- viability, T/C [8]: 94.7%
- viability, T/C (second compound 3.16 µM, first compound 0.316 µM): 101%
- viability, T/C (second compound 3.16 µM, first compound 1 µM): 83.4%
- viability, T/C (second compound 3.16 µM, first compound 3.16 µM): 84%
- viability, T/C (second compound 3.16 µM, first compound 10 µM): 76.6%
- viability, T/C [9]: 93.8%
- viability, T/C [10]: 95.9%
- viability, T/C (second compound 10 µM, first compound 0.316 µM): 94.5%
- viability, T/C (second compound 10 µM, first compound 1 µM): 84.2%
- viability, T/C (second compound 10 µM, first compound 3.16 µM): 78.1%
- viability, T/C (second compound 10 µM, first compound 10 µM): 66.9%
